Assays:
[1] = Blockade of pentylenetetrazole induced clonic convulsions, intragastric; format: in vivo, mice; settings: for ED50: Mus musculus, po
Method: Exp. Ther., 108, 168 (1953)]. […] Both test compounds were administered intragastrically at specific time periods prior to the pentylenetetrazole challenge, and the ED50 for blockade of clonic convulsions was determined for each time period. Duration of activity is inferred from increases in the ED50 with time.

[2] = Blockade of pentylenetetrazole induced clonic convulsions, intravenous; format: in vivo, mice; settings: for ED50: Mus musculus, read-out: ED50 (95% confidence limits), anti-pentylenetetrazole effect
[3] = Multiple VI-FR conflict procedure (anti-conflict, anti-anxiety); format: in vivo, squirrel monkey; settings: intragastric
[4] = Rotarod test (muscle relaxant); format: in vivo, mice; settings: intragastric; for ED50: Mus musculus, po, read-out: Rotarod ED50 (95% confidence limits)
Method: Using this procedure [after Dunham, N.W. and T.S. Miya, J. Amer. Pharm. […] The compounds were administered intragastrically to mice at varying time periods before being placed on the horizontal rotating (4.4 rpm) rod. Different groups of mice were assigned to each time period so that a subject was tested only once. A testing trial consisted of two opportunities to stay on the rod for one minute. ED50 's were calculated for each time period.

[5] = Potentiation of a sub-hypnotic dose of pentobarbital sodium (loss of righting reflex); format: in vivo, mice; settings: for ED50 (95% confidence limits), potentiation of pentobarbital sodium (loss of righting reflex): pentobarbital sodium 20 mg/kg i.p.
Excerpt: In this procedure an ED50 for loss of righting reflex was established.

[6] = Comparison of durations of anti-conflict activity, drug crossover design, 16 hours after treatment; format: in vivo, squirrel monkey; settings: molar equivalent dose, 16 hours later; for bar pressing rate during the conflict segments, % of pre-compound control levels: 14 squirrel monkeys, crossover
[7] = 5 min, read-out: ED50 (95% confidence limits), anti-pentylenetetrazole effect, 5 min
[8] = 0.5 h, read-out: ED50 (95% confidence limits), anti-pentylenetetrazole effect, 30 min
[9] = read-out: ED50 (95% confidence limits), anti-pentylenetetrazole effect, 15 min
[10] = read-out: ED50 (95% confidence limits), anti-pentylenetetrazole effect, 1 hour
[11] = read-out: ED50 (95% confidence limits), anti-pentylenetetrazole effect, 2 hours
[12] = read-out: ED50 (95% confidence limits), anti-pentylenetetrazole effect, 4 hours
[13] = read-out: ED50 (95% confidence limits), anti-pentylenetetrazole effect, 8 hours
[14] = intragastric, .25 hours, 15 min

In the case of Clc1ccc2c(c1)C(c1ccccc1Cl)=NCCN2C1=NCCO1 [Compound I, 7-chloro-5-(o-chlorophenyl)-2,3-dihydro-1-(2-oxazolin-2-yl)-1H-1,4-benzodiazepine], the “time to peak anti-pentylenetetrazole activity” value [1] is reported as no more than 15 min, the “change of ED50 in 30 minutes” value ([1]; 30 minutes) is reported as “nearly doubled” and the “increase of ED50 by 8 hours” value [1] is reported as “about 20 fold”. For the same compound, the ED50 [1, 7] was 3.8 mg/kg, the ED50 [1, 8] was 1.9 mg/kg and the ED50 [1, 9] was 1 mg/kg. It also gave an ED50 [1, 10] of 1.8 mg/kg, an ED50 [1, 11] of 6.2 mg/kg and an ED50 [1, 12] of 7.1 mg/kg. For the same compound, the ED50 [1, 13] was 19.6 mg/kg, the duration of activity ([1]; compared with diazepam) was “much shorter duration of activity than Diazepam” and the ED50 ([2]; 1 min, intravenous, 1 min) was 0.12 mg/kg. The ED50 ([2]; 0.5 h, intravenous, 30 min) was 0.23 mg/kg, the ED50 ([2]; intravenous, 15 min) was 0.18 mg/kg and the ED50 ([2]; intravenous, 1 hour) was 0.57 mg/kg. It also gave an ED50 ([2]; intravenous, 2 hours) of 1.44 mg/kg, an ED50 ([2]; intravenous, 4 hours) of 4.79 mg/kg and an ED50 ([2]; intravenous, 8 hours) of 17.8 mg/kg. For the same compound, the “time to peak activity” value ([2]; intravenous) was “one”, the anti-convulsant effectiveness ([2]; intravenous as well as intragastric route) was “effective as an anti-convulsant” and the “increase of ED50 over the 8 hour period” value ([2]; intravenous, 8 hours) was roughly 150 fold. For the same compound, the duration of activity ([2]; intravenous, compared with diazepam) was “shorter duration of activity”, the “Conflict (FR) bar pressing rate, percentage of average pre-compound control rate” value ([3]; 1.26 mg/kg, N 5) was 1519% and the “Non-Conflict (VI) bar pressing rate, percentage of average pre-compound control rate” value ([3]; 1.26 mg/kg, N 5) was 46%. For the same compound, the “Conflict (FR) bar pressing rate, percentage of average pre-compound control rate” value ([3]; .07 mg/kg, N 5) was 281%, the “Non-Conflict (VI) bar pressing rate, percentage of average pre-compound control rate” value ([3]; .07 mg/kg, N 5) was 100% and the “dose response of bar pressing rates during the conflict segment” value ([3]; .07 to 1.26 mg/kg) was “clear dose responsive increase in bar pressing rates during the conflict segment”. For the same compound, the “Conflict (FR) bar pressing rate, percentage of average pre-compound control rate” value ([3]; .126 mg/kg, N 6) was 514%, the “Non-Conflict (VI) bar pressing rate, percentage of average pre-compound control rate” value ([3]; .126 mg/kg, N 6) was 101% and the “Conflict (FR) bar pressing rate, percentage of average pre-compound control rate” value ([3]; .404 mg/kg, N 6) was 1286%. The “Non-Conflict (VI) bar pressing rate, percentage of average pre-compound control rate” value ([3]; .404 mg/kg, N 6) was 100%, the ED50 ([4]; 0.08 h, .08 hours) was 8.5 mg/kg and the ED50 ([4]; 0.5 h, .5 hours) was 8.9 mg/kg. For the same compound, the ED50 ([4]; 1.0 hours) was 24 mg/kg, the ED50 ([4]; 2.0 hours) was 74.9 mg/kg and the ED50 ([4]; .25 hours) was 2.9 mg/kg. The “increase of rotarod ED50 from 15 minutes to 2 hours” value [4] was 25 fold, the “time to peak effect (rotarod)” value [4] was no more than 15 min and the “duration of action (rotarod)” value ([4]; compared with diazepam) was “shorter duration of action”. The “loss of potency over the two hour period (rotarod)” value ([4]; two hours) was “rapidly lost potency”, the “duration of sedative-hypnotic activity” value ([5]; compared with a standard benzodiazepine (diazepam)) was “shorter duration of sedative-hypnotic activity” and the “ED50 (95% confidence limits), potentiation of pentobarbital sodium (loss of righting reflex)” value ([5]; intragastric, 1.0 hours) was 24.1(17.9-32.4) mg/kg. For the same compound, the “ED50 (95% confidence limits), potentiation of pentobarbital sodium (loss of righting reflex)” value ([5]; intragastric, 2.0 hours) was 39.1(28.1-54.3) mg/kg, the “ED50 (95% confidence limits), potentiation of pentobarbital sodium (loss of righting reflex)” value [5, 14] was 5.6(3.8-8.4) mg/kg and the “increase of ED50 for potentiating pentobarbital sodium” value ([5]; intragastric, two hour period) was “about 7 fold”. The “duration of anti-anxiety (anti-conflict) action, in words” value [6] was “shorter duration of action of anti-anxiety effect” and the “bar pressing rate during the conflict segments, % of pre-compound control levels” value [6] was 123%.
For CN1C(=O)CN=C(c2ccccc2)c2cc(Cl)ccc21 [Diazepam, diazepam, reference compound], the “time to peak anti-pentylenetetrazole activity” value [1] was no more than 15 min, the “increase of ED50 by 8 hours” value [1] was 2 fold and the ED50 [1, 7] was 1.1 mg/kg. It also gave an ED50 [1, 8] of 0.8 mg/kg, an ED50 [1, 9] of 0.9 mg/kg and an ED50 [1, 10] of 0.8 mg/kg. It also gave an ED50 [1, 11] of 0.7 mg/kg, an ED50 [1, 12] of 1.6 mg/kg and an ED50 [1, 13] of 1.4 mg/kg. For the same compound, the ED50 ([2]; 1 min, intravenous, 1 min) was 0.07 mg/kg, the ED50 ([2]; 0.5 h, intravenous, 30 min) was 0.23 mg/kg and the ED50 ([2]; intravenous, 15 min) was 0.26 mg/kg. For the same compound, the ED50 ([2]; intravenous, 1 hour) was 0.48 mg/kg, the ED50 ([2]; intravenous, 2 hours) was 0.75 mg/kg and the ED50 ([2]; intravenous, 4 hours) was 1.16 mg/kg. For the same compound, the ED50 ([2]; intravenous, 8 hours) was 1.78 mg/kg, the “increase of ED50 over the 8 hour period” value ([2]; intravenous, 8 hours) was 25 fold and the “ED50 (95% confidence limits), potentiation of pentobarbital sodium (loss of righting reflex)” value ([5]; intragastric, 1.0 hours) was 3.8(2.7-5.4) mg/kg. For the same compound, the “ED50 (95% confidence limits), potentiation of pentobarbital sodium (loss of righting reflex)” value ([5]; intragastric, 2.0 hours) was 3.6(2.4-5.4) mg/kg, the “ED50 (95% confidence limits), potentiation of pentobarbital sodium (loss of righting reflex)” value [5, 14] was 4.1(2.7-6.3) mg/kg and the “duration of anti-anxiety (anti-conflict) action, in words” value [6] was “still produced pronounced anti-conflict effects”. The “bar pressing rate during the conflict segments, % of pre-compound control levels” value [6] was 1265%.
